{"source": "the Kinase Knowledgebase extract (Sharma et al. 2016)", "molecular_target": "EGFR (UniProt P00533)", "sequence (P00533 whole entry, looked up)": "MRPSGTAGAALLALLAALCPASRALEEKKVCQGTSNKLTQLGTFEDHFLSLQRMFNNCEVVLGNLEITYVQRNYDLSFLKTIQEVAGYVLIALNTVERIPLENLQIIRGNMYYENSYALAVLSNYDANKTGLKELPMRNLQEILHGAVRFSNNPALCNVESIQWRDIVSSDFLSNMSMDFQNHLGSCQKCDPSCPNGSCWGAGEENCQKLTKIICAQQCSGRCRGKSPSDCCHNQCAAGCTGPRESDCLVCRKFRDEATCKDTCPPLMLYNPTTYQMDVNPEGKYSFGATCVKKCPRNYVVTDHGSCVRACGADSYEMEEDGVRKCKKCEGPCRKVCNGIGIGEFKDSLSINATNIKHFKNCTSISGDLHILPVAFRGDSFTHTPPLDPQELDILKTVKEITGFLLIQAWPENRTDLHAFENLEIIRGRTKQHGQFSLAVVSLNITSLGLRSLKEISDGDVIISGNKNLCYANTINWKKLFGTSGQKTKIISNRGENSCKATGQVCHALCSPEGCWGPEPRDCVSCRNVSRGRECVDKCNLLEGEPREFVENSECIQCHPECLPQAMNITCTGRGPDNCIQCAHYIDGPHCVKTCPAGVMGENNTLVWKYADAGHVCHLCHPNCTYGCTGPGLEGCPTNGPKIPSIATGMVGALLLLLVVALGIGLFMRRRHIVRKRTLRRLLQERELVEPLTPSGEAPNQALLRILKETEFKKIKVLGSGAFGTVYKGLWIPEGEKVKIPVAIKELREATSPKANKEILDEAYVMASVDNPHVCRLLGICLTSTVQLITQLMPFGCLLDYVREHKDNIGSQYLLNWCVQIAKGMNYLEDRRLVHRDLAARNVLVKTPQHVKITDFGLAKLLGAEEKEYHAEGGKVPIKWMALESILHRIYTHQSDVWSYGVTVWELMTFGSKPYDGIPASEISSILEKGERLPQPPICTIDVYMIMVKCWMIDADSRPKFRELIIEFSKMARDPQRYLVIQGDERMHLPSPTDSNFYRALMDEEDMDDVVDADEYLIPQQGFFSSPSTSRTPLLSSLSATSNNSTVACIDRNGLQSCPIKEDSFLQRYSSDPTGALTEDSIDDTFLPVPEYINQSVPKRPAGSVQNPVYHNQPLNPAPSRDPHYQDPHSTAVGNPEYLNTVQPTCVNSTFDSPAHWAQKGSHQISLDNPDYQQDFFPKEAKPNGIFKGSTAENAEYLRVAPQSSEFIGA", "data": [{"smiles": "CCc1c(NC(=O)OC[C@@H]2CCNC2)cn2ncnc(Nc3ccc4c(cnn4Cc4ccccc4)c3)c12", "values": [{"measurement": "IC50", "result": "1 to 5000", "unit": "nM"}]}, {"smiles": "Cc1c(NC(=O)OC[C@H]2COCCN2)cn2ncnc(Nc3ccc4c(cnn4Cc4cccc(F)c4)c3)c12", "values": [{"measurement": "IC50", "result": "1 to 5000", "unit": "nM"}]}, {"smiles": "CCc1c(NC(=O)OC[C@H]2C[C@H](O)CCN2)cn2ncnc(Nc3ccc4c(cnn4Cc4ccccc4)c3)c12", "values": [{"measurement": "IC50", "result": "1 to 5000", "unit": "nM"}]}, {"smiles": "Cc1c(NC(=O)O[C@H]2CCN[C@H](CO)C2)cn2ncnc(Nc3ccc4c(cnn4Cc4cccc(F)c4)c3)c12", "values": [{"measurement": "IC50", "result": "1 to 5000", "unit": "nM"}]}, {"smiles": "CCc1c(NC(=O)OCCCN2CCC[C@H](O)C2)cn2ncnc(Nc3ccc4c(cnn4Cc4ccccc4)c3)c12", "values": [{"measurement": "IC50", "result": "1 to 5000", "unit": "nM"}]}, {"smiles": "Cc1c(NC(=O)OC[C@@H]2COCCN2C(=O)OC(C)(C)C)cn2ncnc(Nc3ccc4c(cnn4Cc4cccc(F)c4)c3)c12", "values": [{"measurement": "IC50", "result": "1 to 5000", "unit": "nM"}]}, {"smiles": "CCc1c(NC(=O)OC[C@@H]2COCCN2)cn2ncnc(Nc3ccc4c(cnn4Cc4ccsc4)c3)c12", "values": [{"measurement": "IC50", "result": "1 to 5000", "unit": "nM"}]}, {"smiles": "CCc1c(NC(=O)O[C@@H]2CCN[C@@H](CO)C2)cn2ncnc(Nc3ccc4c(cnn4Cc4ccccc4)c3)c12", "values": [{"measurement": "IC50", "result": "1 to 5000", "unit": "nM"}]}, {"smiles": "Cc1c(NC(=O)OC[C@H](C)N)cn2ncnc(Nc3ccc4c(cnn4Cc4cccc(F)c4)c3)c12", "values": [{"measurement": "IC50", "result": "1 to 5000", "unit": "nM"}]}, {"smiles": "Cc1c(NC(=O)OC[C@@H](C)N)cn2ncnc(Nc3ccc4c(cnn4Cc4cccc(F)c4)c3)c12", "values": [{"measurement": "IC50", "result": "1 to 5000", "unit": "nM"}]}, {"smiles": "CCc1c(NC(=O)OC[C@@H]2COCCN2)cn2ncnc(Nc3ccc4c(cnn4Cc4cccc(F)c4)c3)c12", "values": [{"measurement": "IC50", "result": "1 to 5000", "unit": "nM"}]}, {"smiles": "Cc1c(NC(=O)OCC2COCCN2)cn2ncnc(Nc3ccc4c(cnn4Cc4cccc(F)c4)c3)c12", "note": "(stereo not given)", "values": [{"measurement": "IC50", "result": "1 to 5000", "unit": "nM"}]}, {"smiles": "Cc1c(NC(=O)O[C@H]2CCCNC2)cn2ncnc(Nc3ccc4c(cnn4Cc4cccc(F)c4)c3)c12", "values": [{"measurement": "IC50", "result": "1 to 5000", "unit": "nM"}]}, {"smiles": "CCc1c(NC(=O)O[C@H]2CC[C@H](CN)CC2)cn2ncnc(Nc3ccc4c(cnn4Cc4ccccc4)c3)c12", "values": [{"measurement": "IC50", "result": "1 to 5000", "unit": "nM"}]}, {"smiles": "CCc1c(NC(=O)OC[C@@H]2CCCN2C)cn2ncnc(Nc3ccc4c(cnn4Cc4ccccc4)c3)c12", "values": [{"measurement": "IC50", "result": "1 to 5000", "unit": "nM"}]}, {"smiles": "CCc1c(NC(=O)OC[C@@H]2COCCN2)cn2ncnc(Nc3ccc4c(cnn4Cc4cnccn4)c3)c12", "values": [{"measurement": "IC50", "result": "1 to 5000", "unit": "nM"}]}, {"smiles": "Cc1c(NC(=O)O[C@H]2CC[C@H](N)CC2)cn2ncnc(Nc3ccc4c(cnn4Cc4cccc(F)c4)c3)c12", "values": [{"measurement": "IC50", "result": "1 to 5000", "unit": "nM"}]}, {"smiles": "Cc1c(NC(=O)O[C@H]2CC[C@@H](N)CC2)cn2ncnc(Nc3ccc4c(cnn4Cc4cccc(F)c4)c3)c12", "values": [{"measurement": "IC50", "result": "1 to 5000", "unit": "nM"}]}, {"smiles": "CCc1c(NC(=O)OC[C@@H]2COCCN2)cn2ncnc(Nc3ccc4c(cnn4Cc4cccs4)c3)c12", "values": [{"measurement": "IC50", "result": "1 to 5000", "unit": "nM"}]}, {"smiles": "CCc1c(NC(=O)OC[C@H]2CCNC2)cn2ncnc(Nc3ccc4c(cnn4Cc4ccccc4)c3)c12", "values": [{"measurement": "IC50", "result": "1 to 5000", "unit": "nM"}]}, {"smiles": "CCc1c(NC(=O)O[C@H]2CCCNC2)cn2ncnc(Nc3ccc4c(cnn4Cc4ccccc4)c3)c12", "values": [{"measurement": "IC50", "result": "1 to 5000", "unit": "nM"}]}, {"smiles": "CCc1c(NC(=O)OC[C@@H]2CCN(C)C2)cn2ncnc(Nc3ccc4c(cnn4Cc4ccccc4)c3)c12", "values": [{"measurement": "IC50", "result": "1 to 5000", "unit": "nM"}]}, {"smiles": "CCc1c(NC(=O)OC[C@@H]2COCCN2)cn2ncnc(Nc3ccc4c(cnn4Cc4ncco4)c3)c12", "values": [{"measurement": "IC50", "result": "1 to 5000", "unit": "nM"}]}, {"smiles": "CCc1c(NC(=O)OC[C@@H]2CNCCO2)cn2ncnc(Nc3ccc4c(cnn4Cc4ccccc4)c3)c12", "values": [{"measurement": "IC50", "result": "1 to 5000", "unit": "nM"}]}, {"smiles": "CCc1c(NC(=O)OC2CCN[C@H](CO)C2)cn2ncnc(Nc3ccc4c(cnn4Cc4ccccc4)c3)c12", "note": "(stereo not given in full)", "values": [{"measurement": "IC50", "result": "1 to 5000", "unit": "nM"}]}, {"smiles": "CCc1c(NC(=O)O[C@H]2CC[C@@H](N)CC2)cn2ncnc(Nc3ccc4c(cnn4Cc4ccccc4)c3)c12", "values": [{"measurement": "IC50", "result": "1 to 5000", "unit": "nM"}]}, {"smiles": "CCc1c(NC(=O)OC[C@@H]2COCCN2)cn2ncnc(Nc3ccc4c(cnn4Cc4cccnc4)c3)c12", "values": [{"measurement": "IC50", "result": "1 to 5000", "unit": "nM"}]}, {"smiles": "CCc1c(NC(=O)OC[C@@H]2COCCN2)cn2ncnc(Nc3ccc4c(cnn4Cc4ccccc4)c3)c12", "values": [{"measurement": "IC50", "result": "1 to 5000", "unit": "nM"}]}, {"smiles": "CCc1c(NC(=O)OCCCN2CC[C@@H](O)C2)cn2ncnc(Nc3ccc4c(cnn4Cc4ccccc4)c3)c12", "values": [{"measurement": "IC50", "result": "1 to 5000", "unit": "nM"}]}, {"smiles": "CCc1c(NC(=O)O[C@H]2CC[C@H](N)CC2)cn2ncnc(Nc3ccc4c(cnn4Cc4ccccc4)c3)c12", "values": [{"measurement": "IC50", "result": "1 to 5000", "unit": "nM"}]}, {"smiles": "Cc1c(NC(=O)OC[C@@H]2COCCN2)cn2ncnc(Nc3ccc4c(cnn4Cc4cccc(F)c4)c3)c12", "values": [{"measurement": "IC50", "result": "1 to 5000", "unit": "nM"}]}, {"smiles": "CCc1c(NC(=O)O[C@H]2CC[C@@H](CN)CC2)cn2ncnc(Nc3ccc4c(cnn4Cc4ccccc4)c3)c12", "values": [{"measurement": "IC50", "result": "1 to 5000", "unit": "nM"}]}, {"smiles": "Cc1c(NC(=O)O[C@@H]2CCCNC2)cn2ncnc(Nc3ccc4c(cnn4Cc4cccc(F)c4)c3)c12", "values": [{"measurement": "IC50", "result": "1 to 5000", "unit": "nM"}]}, {"smiles": "CCc1c(NC(=O)O[C@H]2CC[C@@](C)(N)CC2)cn2ncnc(Nc3ccc4c(cnn4Cc4ccccc4)c3)c12", "values": [{"measurement": "IC50", "result": "1 to 5000", "unit": "nM"}]}, {"smiles": "CCc1c(NC(=O)OC[C@H]2CNCCO2)cn2ncnc(Nc3ccc4c(cnn4Cc4ccccc4)c3)c12", "values": [{"measurement": "IC50", "result": "1 to 5000", "unit": "nM"}]}, {"smiles": "CCc1c(NC(=O)OC[C@@H]2COCCN2)cn2ncnc(Nc3ccc4c(cnn4Cc4ccccn4)c3)c12", "values": [{"measurement": "IC50", "result": "1 to 5000", "unit": "nM"}]}, {"smiles": "CCc1c(NC(=O)OC[C@@H]2COCCN2)cn2ncnc(Nc3ccc4c(cnn4Cc4cscn4)c3)c12", "values": [{"measurement": "IC50", "result": "1 to 5000", "unit": "nM"}]}, {"smiles": "CCc1c(NC(=O)OC[C@H]2CCCN2)cn2ncnc(Nc3ccc4c(cnn4Cc4ccccc4)c3)c12", "values": [{"measurement": "IC50", "result": "1 to 5000", "unit": "nM"}]}, {"smiles": "Cc1c(NC(=O)O[C@H]2CC[C@@](C)(N)CC2)cn2ncnc(Nc3ccc4c(cnn4Cc4cccc(F)c4)c3)c12", "values": [{"measurement": "IC50", "result": "1 to 5000", "unit": "nM"}]}, {"smiles": "CCc1c(NC(=O)OCCCN2CC[C@H](O)C2)cn2ncnc(Nc3ccc4c(cnn4Cc4ccccc4)c3)c12", "values": [{"measurement": "IC50", "result": "1 to 5000", "unit": "nM"}]}, {"smiles": "Cc1c(NC(=O)O[C@@H]2CCN[C@@H](CO)C2)cn2ncnc(Nc3ccc4c(cnn4Cc4cccc(F)c4)c3)c12", "values": [{"measurement": "IC50", "result": "1 to 5000", "unit": "nM"}]}, {"smiles": "CCc1c(NC(=O)OC[C@@H]2COCCN2)cn2ncnc(Nc3ccc4c(cnn4Cc4nccs4)c3)c12", "values": [{"measurement": "IC50", "result": "1 to 5000", "unit": "nM"}]}, {"smiles": "CCc1c(NC(=O)O[C@@H]2CCCNC2)cn2ncnc(Nc3ccc4c(cnn4Cc4ccccc4)c3)c12", "values": [{"measurement": "IC50", "result": "1 to 5000", "unit": "nM"}]}, {"smiles": "CCc1c(NC(=O)OC[C@H]2COCCN2)cn2ncnc(Nc3ccc4c(cnn4Cc4ccccc4)c3)c12", "values": [{"measurement": "IC50", "result": "1 to 5000", "unit": "nM"}]}, {"smiles": "CCc1c(NC(=O)OC[C@@H]2CCCN2)cn2ncnc(Nc3ccc4c(cnn4Cc4ccccc4)c3)c12", "values": [{"measurement": "IC50", "result": "1 to 5000", "unit": "nM"}]}]}
